pIC50: −log10 of the molar value. Counter-ions that a name gives are not always drawn.

This test deals with human gel filtered platelets (GFP). In words: Inhibition of ADP-induced, fibrinogen-dependent blood platelet aggregation in human gel filtered platelets (GFP). In kind it is cell-based. Particulars: fibrinogen 0.5mg/ml, compounds incubated 5 minutes at 37°C, ADP 1 x 10⁻⁵M, concentration required to produce 50% inhibition of platelet aggregation, read-out: IC₅₀. As for the experimental part:
Inhibition of blood platelet aggregation by compounds of the invention was determined according to the following procedure. Citrated whole blood (1 part 3.8% trisodium citrate: 9 parts blood) was obtained from human volunteers, free of medication for at least 10 days prior to collection. The blood was incubated with 0.1mM aspirin and 0.05µM prostacyclin and then centrifuged at 1000g for 4 minutes (20°C). The supernatant platelet rich plasma (PRP) was further centrifuged at 1300g for 10 minutes (20°C) to sediment the platelets. The supernatant was discarded and the pellet washed with a physiological salt solution (HEPES 5mM, NaHCO₃ 12mM, NaCl 140mM, KH₂PO₄ 0.74mM, D-Glucose 5.6mM, KCl 2.82mM and BSA 20g/l, pH 7.4) to remove residual plasma. After washing, the pellet was resuspended in physiological salt solution and then applied to a sepharose CL-2B column, pre-equilibrated with physiological salt solution at room temperature. The platelets (GFP) eluted within the void volume and were diluted to approximately 300,000 platelets/µl in buffer. Purified human fibrinogen (Knight L.C. et al, 1981 Thromb. Haemostasis, 46(3), 593-596) was added to a final concentration of 0.5mg/ml together with Ca2+ and Mg2+ at 1mM and 0.5mM respectively. […] The potency of the compounds may be expressed as an IC₅₀ value, defined as the concentration of compound required to produce 50% inhibition of platelet aggregation.
In the case of `N=C(N)c1ccc(N2CCN(C3CCC(O)(CC(=O)O)CC3)CC2)c(-c2ccccc2)c1` (centres unmarked) [Example 6, trifluoroacetate salt], the pIC50 was 5.81. Turning to `N=C(N)c1ccc(N2CCN(C3CCC(O)(CC(=O)O)CC3)CC2)c(Br)c1` (stereo not drawn) [Example 2, cis-4-[4-[4-(Aminoiminomethyl)-2-bromophenyl]-1-piperazinyl]-1-hydroxycyclohexaneacetic acid, trifluoroacetate salt], the pIC50 is 6.02.

Turning to `N=C(N)c1ncc(N2CCN(C3CCC(O)(CC(=O)O)CC3)CC2)cn1` (stereo not drawn) [Example 3, cis-4-[4-[2-(Aminoiminomethyl)-5-pyrimidinyl]-1-piperazinyl]-1-hydroxycyclohexaneacetic acid, trifluoroacetate salt], the pIC50 is 6.27.

`N=C(N)c1ccc(N2CCN([C@H]3CC[C@@](O)(CC(=O)O)CC3)CC2)cn1` [Example 5, cis-4-[4-[2-(Aminoiminomethyl)-5-pyridinyl]-1-piperazinyl]-1-hydroxycyclohexaneacetic acid, trifluoroacetate salt]: the pIC50 is 6.66. With `N=C(N)c1ccc(C2CCN(C3CCC(O)(CC(=O)O)CC3)CC2)cc1` (stereo not drawn) [Example 4, cis-4-[4-[4-(Aminoiminomethyl)phenyl]-1-piperidinyl]-1-hydroxycyclohexaneacetic acid, trifluoroacetate salt] the figure was 7.89.

The values above are taken from patent publication EP0537980A1, “Cyclohexaneacetic acid derivatives as inhibitors of fibrinogen-dependent blood platelet aggregation” (GLAXO GROUP LIMITED, priority 1991, dated 1993).
